Source: article PMC11242173 (International Journal of Molecular Sciences, 2024)
In brackets after ≈: the same amount, converted by molar mass.

Tests used:
HCT-8 cells = experiment: Cytotoxicity (cell viability) assay in HCT-8 cells; format: cell-based, human; settings: uninfected HCT-8 cells, 72 h
Protocol: HCT-8, MRC5, A549, and Calu-3 cells seeded on 96-well plates 24 h before the assay were exposed to increasing concentrations of compounds or the vehicle as a control. Cytotoxicity was evaluated after 48 h for MRC5 and Calu-3 cells or after 72 h for A549 and HCT-8 cells, using the CellTiter-Glo assay (Promega, Milan, Italy) or the ATPlite assay (PerkinElmer, Milan, Italy). The cytotoxicity of the tested compounds was expressed as cytotoxic concentration (CC50).

hCoV-OC43 = experiment: Focus forming reduction assay (FFRA), hCoV-OC43 in HCT-8 cells; settings: for EC50 / EC90: hCoV-OC43, FFRA in HCT-8 cells, treatment before, during and after infection, 72 h p.i.; for SI (ratio of CC50 to EC50): hCoV-OC43, HCT-8 cells

SMILES	CC50 (HCT-8 cells)	EC50 (hCoV-OC43)	EC90 (hCoV-OC43)	SI (ratio of CC50 to EC50) (hCoV-OC43)
Oc1cc(O)c2c(c1)O[C@H](c1ccc(O)c(O)c1)[C@H](O)[C@H]2c1c(O)cc(O)c2c1O[C@H](c1ccc(O)c(O)c1)[C@@H](O)C2 [PAC B1, PAC-B1]	>400 µg/mL	167.02 ± 6.51 µg/mL (≈ 289 µM)	>400 µg/mL	>2.39
Oc1cc(O)c2c(c1)O[C@@]1(c3ccc(O)c(O)c3)Oc3cc(O)c4c(c3[C@@H]2[C@H]1O)O[C@H](c1ccc(O)c(O)c1)[C@H](O)C4 [PAC A2, PAC-A2]	>400 µg/mL	6.58 ± 0.40 µg/mL (≈ 11.4 µM)	100.74 ± 0.66 µg/mL (≈ 175 µM)	>60.79
Oc1cc(O)c2c(c1)O[C@H](c1ccc(O)c(O)c1)[C@@H](O)[C@@H]2c1c(O)cc(O)c2c1O[C@H](c1ccc(O)c(O)c1)[C@@H](O)C2 [PAC B3, PAC-B3]	>400 µg/mL	134.92 ± 4.14 µg/mL (≈ 233 µM)	>400 µg/mL	>2.96
Oc1cc(O)c2c(c1)OC1(c3ccc(O)c(O)c3)Oc3cc(O)c4c(c3C2C1O)OC(c1ccc(O)c(O)c1)C(O)C4 (centres unmarked) [PAC A1, PAC-A1]	>400 µg/mL	4.10 ± 0.71 µg/mL (≈ 7.11 µM)	139.35 ± 2.06 µg/mL (≈ 242 µM)	>97.56
Oc1cc(O)c2c(c1)O[C@H](c1ccc(O)c(O)c1)[C@H](O)[C@H]2c1c(O)cc(O)c2c1O[C@H](c1ccc(O)c(O)c1)[C@H](O)C2 [PAC B2, PAC-B2]	>400 µg/mL	142.41 ± 8.93 µg/mL (≈ 246 µM)	>400 µg/mL	>2.81
